This is an account of results in publication PMC8262356, “SLC26A6-selective inhibitor identified in a small-molecule screen blocks fluid absorption in small intestine” (JCI Insight, 2021).

SMILES strings stand for the structures. pIC50: −log10 of the molar value.

The assay concerns the target T1, PAT1 (murine slc26a6) (Mus musculus, UniProt Q8CIW6).
T1 construct: host or cells: Fischer rat thyroid (FRT) cells, lentiviral transduction (pLVX-IRES-mCherry-slc26a6), clonal line FRT-YFP-slc26a6
T1 sequence (Q8CIW6 24-758 limits assumed): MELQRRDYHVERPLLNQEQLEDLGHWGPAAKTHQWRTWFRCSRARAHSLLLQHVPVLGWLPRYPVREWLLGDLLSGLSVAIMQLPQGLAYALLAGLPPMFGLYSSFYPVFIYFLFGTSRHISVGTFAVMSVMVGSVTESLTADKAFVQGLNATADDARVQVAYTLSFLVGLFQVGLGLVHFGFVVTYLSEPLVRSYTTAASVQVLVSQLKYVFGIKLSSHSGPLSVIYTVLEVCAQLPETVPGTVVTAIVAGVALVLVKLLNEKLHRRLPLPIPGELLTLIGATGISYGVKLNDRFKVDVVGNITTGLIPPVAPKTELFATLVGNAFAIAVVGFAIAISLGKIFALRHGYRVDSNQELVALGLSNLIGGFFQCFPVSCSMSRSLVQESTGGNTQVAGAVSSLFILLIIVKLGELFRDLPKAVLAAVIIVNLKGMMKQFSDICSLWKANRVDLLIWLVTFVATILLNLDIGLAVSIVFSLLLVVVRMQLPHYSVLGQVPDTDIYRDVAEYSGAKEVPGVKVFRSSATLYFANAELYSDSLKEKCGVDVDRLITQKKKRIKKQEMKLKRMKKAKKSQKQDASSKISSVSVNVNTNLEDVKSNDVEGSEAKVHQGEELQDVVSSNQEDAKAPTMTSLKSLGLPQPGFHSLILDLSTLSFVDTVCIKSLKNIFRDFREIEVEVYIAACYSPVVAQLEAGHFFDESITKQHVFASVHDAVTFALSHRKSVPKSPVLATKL
The assay can be described thus: PAT1-mediated Cl-/SCN- exchange, YFP fluorescence quenching in FRT cells. Particulars: read-out: IC50, inhibition of PAT1-mediated Cl-/SCN- exchange. Type of assay: cell-based. Here is the method:
As PAT1 functions as a general monovalent anion exchanger, PAT1inh-B01 inhibition was studied for different modes of anion exchange. […] To measure Cl^–/HCO3^– exchange, the time course of cytoplasmic pH was measured, using BCECF as a pH indicator, in response to a gluconate gradient to drive exchange of cytoplasmic Cl^– with extracellular HCO3^– producing cytoplasmic alkalinization (Figure 2B) as done before for DRA and pendrin ([7], [10], [11]).
Figure 2 PAT1inh-B01 inhibition of PAT1-mediated anion exchange. (A) YFP fluorescence quenching curves (left), as in Figure 1B, for inhibition of PAT1-mediated exchange of Cl^– for SCN^–, with concentration dependence of PAT1inh-B01 effect (right) (mean ± SEM, n = 3). (B) Inhibition of Cl^–/HCO3^– exchange measured in BCECF-loaded FRT cells by PAT1inh-B01 (mean ± SEM, n = 16–32). (C) Time course of PAT1 inhibition following addition of 1 μM PAT1inh-B01 to cells (mean ± SEM, n = 3). (D) Effects of second messenger signaling on PAT1-mediated Cl^–/I^– exchange. YFP fluorescence quenching curves (left) and summary data (right) following cell exposure to agonists of cAMP (20 μM forskolin + 200 μM IBMX), cGMP (100 μM 8-Br-cGMP) and Ca^+2 (100 μM ATP), or vehicle control (1% DMSO). Mean ± SEM, n = 16 experiments per group, differences not significant by 1-way ANOVA and post hoc Newman-Keuls multiple comparisons test.

Turning to `Cc1c(Br)c(C(F)(F)F)nn1CC(=O)N1CCc2nc3cc(-c4ccccc4)[nH]n3c(=O)c2C1` [PAT1inh-B01], the pIC50 was 6.59.
